Several values for one entry are separate records, joined by “and”; a condition that tells them apart may be missing. Equal entries are not always repeated.
Assays:
[1] = Photodecomposition of Al and Si phthalocyanines in toluene in the presence of squalene under white light; assay type: physicochemical; conditions: toluene ~9 μM, squalene 1:1000 mole ratio, white light 1.2 kJ/s/m^2, air
Experimental: The beam intensity was checked before each measurement.
Solutions for the photodecomposition experiments were prepared as follows.

[2] = Photodecomposition of phthalocyanines in toluene under white light, no added radical source; conditions: for photostability (in words): white light, toluene
Experimental: The distance between the cuvette face and the lamp filament was 30 cm. Determination of the beam intensity at the cuvette face was made with a powermeter (Powermax, pm10, Coherent, Santa Clara, Calif.). The beam intensity was checked before each measurement.
Solutions for the photodecomposition experiments were prepared as follows. […] This assumption was justified on the basis that all of the silicon phthalocyanines studied contained simple, unsubstituted phthalocyanine rings. The extinction coefficients of the aluminum phthalocyanines were assumed to be 2.3×10^5, the extinction coefficient of AlPcOSi(CH3)2(CH2)3N(CH3)2, Pc 1.
The absorbance of the Q band of the solution, A, was determined with a spectrophotometer (Lambda 25, Perkin Elmer, Shelton, Conn.; fused silica cuvettes, 1.00 cm, 3.5 mL, Fisher Scientific). From A, ε, the cuvette path length, b, and Beer's law, the concentration of the solution, c, was determined. The solution was then diluted with toluene to a concentration of 9.2 μM. To verify that this was the concentration of the solution, its absorbance was measured again.
In a typical determination, the solution (3.00 mL) was placed in a cuvette (1.00 cm, 3.5 mL, Fisher Scientific, Pittsburgh, Pa.) and its absorbance was measured with the spectrometer (Lambda 25) before irradiation and at 2, 4, 6 and 8 h.
where A0 is the absorbance of the solution at time 0, and At is the absorbance at time t.

[3] = time 2 h, radiation 86 kJ/mol × 10^−6
[4] = time 4 h, radiation 172 kJ/mol × 10^−6
[5] = time 6 h, radiation 258 kJ/mol × 10^−6
[6] = time 8 h, radiation 344 kJ/mol × 10^−6
[7] = time 0 h, toluene ~9 μM, no added alkene, white light 1.2 kJ/s/m^2
[8] = time 2 h, radiation 86 kJ/mol × 10^−6, toluene ~9 μM, no added alkene, white light 1.2 kJ/s/m^2
[9] = time 4 h, radiation 172 kJ/mol × 10^−6, toluene ~9 μM, no added alkene, white light 1.2 kJ/s/m^2
[10] = time 6 h, radiation 258 kJ/mol × 10^−6, toluene ~9 μM, no added alkene, white light 1.2 kJ/s/m^2
[11] = time 8 h, radiation 344 kJ/mol × 10^−6, toluene ~9 μM, no added alkene, white light 1.2 kJ/s/m^2

Row | decomp (%) ([1]; time 0 h) | decomp (%) [1, 3] [%] | decomp (%) [1, 4] [%] | decomp (%) [1, 5] [%] | decomp (%) [1, 6] [%] | Compound | decomp (%) [2, 7] [%] | decomp (%) [2, 8] | decomp (%) [2, 9] | decomp (%) [2, 10] [%] | decomp (%) [2, 11] [%] | photostability (in words) ([2]; no added alkene) | decomp (%) [2] | decomposition rate relative to bis(α-linolenoxy)silicon phthalocyanine [2] | stability in the dark ([2]; in the dark)
1 |  |  |  |  |  | CN(C)CCC[Si](C)(C)O[Si]1(O[Si](C)(C)CCCN(C)C)n2c3c4ccccc4c2N=C2N=C(N=c4c5ccccc5c(n41)=NC1=NC(=N3)c3ccccc31)c1ccccc12 [Pc 12, SiPc[OSi(CH3)2(CH2)3N(CH3)2]2] | 0 | 19% and 18% | 20% and 19% | 21 | 21 |  |  |  | 
2 | 0 | 12 | 23 | 34 | 44 | C[Si](C)(CCCI)O[Si]1(O)n2c3c4ccccc4c2N=C2N=C(N=c4c5ccccc5c(n41)=NC1=NC(=N3)c3ccccc31)c1ccccc12 (stereo not drawn) [Pc 58, SiPc[OSiMe2(CH2)3I](OH)] |  |  |  |  |  |  |  |  | 
3 |  |  |  |  |  | CN(C)CCCCCC[Si](C)(C)O[Si]1(O[Si](C)(C)CCCCCCN(C)C)n2c3c4ccccc4c2N=C2N=C(N=c4c5ccccc5c(n41)=NC1=NC(=N3)c3ccccc31)c1ccccc12 [Pc 85, SiPc[OSi(CH3)2(CH2)6N(CH3)2]2] | 0 | 5% | 5% | 5 | 5 |  |  |  | 
4 |  |  |  |  |  | COCCC[Si](C)(C)O[Si]1(O[Si](C)(C)CCCOC)n2c3c4ccccc4c2N=C2N=C(N=c4c5ccccc5c(n41)=NC1=NC(=N3)c3ccccc31)c1ccccc12 [Pc 92, SiPc[OSi(CH3)2(CH2)3OCH3]2] | 0 | 1% | 1% | 1 | 1 |  |  |  | 
5 |  |  |  |  |  | CSCCC[Si](C)(C)O[Si]1(O[Si](C)(C)CCCSC)n2c3c4ccccc4c2N=C2N=C(N=c4c5ccccc5c(n41)=NC1=NC(=N3)c3ccccc31)c1ccccc12 [Pc 97, SiPc[OSi(CH3)2(CH2)3SCH3]2] | 0 | 41% | 42% | 43 | 44 |  |  |  | 
6 |  |  |  |  |  | C[Si](C)(CCCN(c1ccccc1)c1ccccc1)O[Si]1(O[Si](C)(C)CCCN(c2ccccc2)c2ccccc2)n2c3c4ccccc4c2N=C2N=C(N=c4c5ccccc5c(n41)=NC1=NC(=N3)c3ccccc31)c1ccccc12 [Pc 159, SiPc[OSi(CH3)2(CH2)3N(C6H5)2]2] | 0 | 0% | 0% | 0 | 1 | quite stable under light |  |  | 
7 | 0 | 9 | 14 | 20 | 26 | CCCCCC[Si](CCCCCC)(CCCCCC)O[Si]1(O[Si](CCCCCC)(CCCCCC)CCCCCC)n2c3c4ccccc4c2N=C2N=C(N=c4c5ccccc5c(n41)=NC1=NC(=N3)c3ccccc31)c1ccccc12 [Pc 162, SiPc(OSiHx3)2] |  |  |  |  |  |  |  |  | 
8 | 0 | 16 | 26 | 34 | 42 | CCCCCC[Si](CCCCCC)(CCCCCC)O[Si]1(O)n2c3c4ccccc4c2N=C2N=C(N=c4c5ccccc5c(n41)=NC1=NC(=N3)c3ccccc31)c1ccccc12 (stereo not drawn) [Pc 252, SiPc(OSiHx3)(OH)] |  |  |  |  |  |  |  |  | 
9 |  |  |  |  |  | C=CCCCC[Si](C)(C)O[Si]1(O[Si](C)(C)CCCCC=C)n2c3c4ccccc4c2N=C2N=C(N=c4c5ccccc5c(n41)=NC1=NC(=N3)c3ccccc31)c1ccccc12 [Pc 270, SiPc[OSi(CH3)2(CH2)4CH═CH2]2] | 0 | 1% | 2% | 2 | 3 |  |  |  | 
10 |  |  |  |  |  | C=CC[Si](C)(C)O[Si]1(O[Si](C)(C)CC=C)n2c3c4ccccc4c2N=C2N=C(N=c4c5ccccc5c(n41)=NC1=NC(=N3)c3ccccc31)c1ccccc12 [Pc 271, SiPc[OSi(CH3)2CH2CH═CH2]2] | 0 | 6% | 10% | 14 | 16 |  |  |  | 
11 | 0 | 11 | 19 | 27 | 36 | C[Si](C)(C)O[Si]1(O[Si](C)(C)C)n2c3c4ccccc4c2N=C2N=C(N=c4c5ccccc5c(n41)=NC1=NC(=N3)c3ccccc31)c1ccccc12 [Pc 280, SiPc(OSiMe3)2] |  |  |  |  |  |  |  |  | 
12 | 0 | 5 | 9 | 13 | 17 | CC[Si](CC)(CC)O[Si]1(O[Si](CC)(CC)CC)n2c3c4ccccc4c2N=C2N=C(N=c4c5ccccc5c(n41)=NC1=NC(=N3)c3ccccc31)c1ccccc12 [Pc 281, SiPc(OSiEt3)2] |  |  |  |  |  |  |  |  | 
13 | 0 | 3 | 4 | 6 | 7 | CCC[Si](CCC)(CCC)O[Si]1(O[Si](CCC)(CCC)CCC)n2c3c4ccccc4c2N=C2N=C(N=c4c5ccccc5c(n41)=NC1=NC(=N3)c3ccccc31)c1ccccc12 [Pc 282, SiPc(OSiPr3)2] |  |  |  |  |  |  |  |  | 
14 | 0 | 24 | 44 | 63 | 77 | C[SiH2]O[Si]1(O[SiH2]C)n2c3c4ccccc4c2N=C2N=C(N=c4c5ccccc5c(n41)=NC1=NC(=N3)c3ccccc31)c1ccccc12 (stereo not drawn) [Pc 283, SiPc(OSiH2Me)2] |  |  |  |  |  |  |  |  | 
15 | 0 | 8 | 16 | 23 | 30 | CCC[Si](CCC)(CCC)[O][Al]1[n]2c3c4ccccc4c2N=C2N=C(N=c4c5ccccc5c([n]41)=NC1=NC(=N3)c3ccccc31)c1ccccc12 [Pc 285, AlPcOSiPr3] |  |  |  |  |  |  |  |  | 
16 | 0 | 10 | 17 | 23 | 29 | CCCCCC[Si](CCCCCC)(CCCCCC)[O][Al]1[n]2c3c4ccccc4c2N=c2c4ccccc4c([n]21)=NC1=NC(=NC2=NC(=N3)c3ccccc32)c2ccccc21 [Pc 286, AlPcOSiHx3] |  |  |  |  |  |  |  |  | 
17 |  |  |  |  |  | CCCCCCCCCCCCCCCCCC(=O)O.CCCCCCCCCCCCCCCCCC(=O)O.CN(C)CCC[Si](C)(C)O[Si]1(O[Si](C)(C)CCCN(C)C)n2c3c4ccccc4c2N=C2N=C(N=c4c5ccccc5c(n41)=NC1=NC(=N3)c3ccccc31)c1ccccc12 [Pc 287, SiPc[OSi(CH3)2(CH2)3NH(CH3)2]2^2+[OC(O)(CH2)17CH3]2^−] | 0 | 19% | 20% | 21 | 21 |  |  |  | 
18 |  |  |  |  |  | CC1=C(/C=C/C(C)=C/C=C/C(C)=C/C(=O)O[Si]2(OC(=O)/C=C(C)/C=C/C=C(C)/C=C/C3=C(C)CCCC3(C)C)n3c4c5ccccc5c3N=C3N=C(N=c5c6ccccc6c(n52)=NC2=NC(=N4)c4ccccc42)c2ccccc23)C(C)(C)CCC1 (stereo not drawn) [Pc 301, SiPc[OC(O)(CH═C(CH3)CH═CH)2C6H6(CH3)3]2] | 0 | 19% | 25% | 28 | 32 |  |  |  | 
19 | 0 | 10 | 15 | 21 | 26 | CCCCCCCC[Si](CCCCCCCC)(CCCCCCCC)O[Si]1(O[Si](CCCCCCCC)(CCCCCCCC)CCCCCCCC)n2c3c4ccccc4c2N=C2N=C(N=c4c5ccccc5c(n41)=NC1=NC(=N3)c3ccccc31)c1ccccc12 [Pc 308, SiPc(OSiOct3)2] |  |  |  |  |  |  |  |  | 
20 |  |  |  |  |  | AlPcOSi(CH3)2(CH2)3N(CH3)2 [Pc 1] | 0 | 27% | 39% | 46 | 49 | low photostability |  |  | 
21 |  |  |  |  |  | SiPc[OC(O)(CH2)3(CH2CH═CH)3(CH2)4CH3]2 [Pc 298] |  |  |  |  |  |  | 0 12 21 27 33% | approximately twice as fast | 
22 |  |  |  |  |  | SiPc[OC(O)(CH2)6(CH2CH═CH)3CH2CH3]z [Pc 297] |  |  |  |  |  |  | 0 3 5 6 9% |  | 
23 |  |  |  |  |  | SiPc[OC(O)(CH2)16CH3]2 [Pc 294] | 0 | 1% | 1% | 1 | 2 |  |  |  | 
24 |  |  |  |  |  | SiPc[OCH2CH═C(CH3)(CH2)2CH═C(CH3)2]2 [Pc 302] | 0 | 19% | 60% | 74 | 81 |  |  |  | stable in the dark

Row | Compound | decomp (%) ([1]; time 0 h) | decomp (%) [1, 3] [%] | decomp (%) [1, 4] [%] | decomp (%) [1, 5] [%] | decomp (%) [1, 6] [%] | decomp (%) [2, 7] [%] | decomp (%) [2, 8] | decomp (%) [2, 9] | decomp (%) [2, 10] [%] | decomp (%) [2, 11] [%] | photostability (in words) ([2]; no added alkene) | decomp (%) [2] | decomposition rate relative to bis(α-linolenoxy)silicon phthalocyanine [2] | stability in the dark ([2]; in the dark)
25 | CN(C)CCC[Si](C)(C)O[Si]1(O)n2c3c4ccccc4c2N=C2N=C(N=c4c5ccccc5c(n41)=NC1=NC(=N3)c3ccccc31)c1ccccc12 (stereo not drawn) [Pc 4, HOSiPcOSi(CH3)2(CH2)3N(CH3)2] | 0 | 57 | 81 | 92 | 96 | 0 | 11% | 12% | 12 | 13 |  |  |  | 

Source: US20120323164A1, “PHOTODYNAMIC THERAPY WITH PHTHALOCYANINES AND RADICAL SOURCES” (Case Western Reserve University, priority 2011, published 2012)
